From EP4653432A1, “AUTOPHAGY INDUCING COMPOUNDS AND USES THEREOF IN THE PREVENTION OR THERAPY OF DISEASES” (Samsara Therapeutics Inc., priority 2024, dated 2025)
Structures can show the parent of a compound that is named as a salt.

System: U2OS cell line stably expressing RFP-eGFP-hLC3b (a tandem reporter cell line)
Assay: Tandem reporter assay (assay to assess autophagic flux)
Assay type: cell-based, Human
Conditions: result in words; at different concentrations
Description: Selected compounds of this invention were also assessed for their ability to stimulate autophagy using a U2OS cell line stabling expressing RFP-eGFP-hLC3b (a tandem reporter cell line). During the process of autophagy, the cargo to be degraded is first enveloped by organelles called autophagosomes. These autophagosomes then fuse with lysosomes, causing them to become acidified and their digestive enzymes to become activated. The term "autophagic flux" is used to represent the dynamic process of autophagy: autophagic flux refers to the whole process of autophagy, including autophagosome formation, maturation, fusion with lysosomes, subsequent breakdown, and the release of macromolecules back into the cytosol (Zhang XJ, Chen S, Huang KX, Le WD. Why should autophagic flux be assessed? Acta Pharmacol Sin. 2013 May; 34(5): 595-9. doi: 10.1038/aps.2012.184. Epub 2013 Mar 11). Compounds that stimulate autophagic flux stimulate the dynamic process of autophagy (the whole process of autophagy). […] Using a fluorescent microscope, the number of autophagosomes and autolysosomes can be counted, allowing for the monitoring of both the induction of autophagy (total puncta count) and the rate of autophagic flux (ratio of red-only to red-and-green puncta). The influence of small molecules on autophagy induction and flux can be assessed using this system by comparison to a non-treated control. […]

| Structure (SMILES) | number of RFP-only puncta (autolysosomes) relative to a DMSO-treated control (non-treated control) |
| --- | --- |
| CC(C)c1ccc(-n2cc(C#N)c(-c3nc(C(=O)N(C(C)C)C4CCNCC4)cs3)n2)nc1.Cl [Compound E, N-isopropyl-N-4-piperidyl-2-[4-cyano-1-(5-isopropyl-2-pyridyl)-3-pyrazolyl]-1,3-thiazole-4-carboxamide hydrochloride] | Particularly good results |
| CC(C)N(C(=O)c1csc(-c2cnc3ccccn23)n1)[C@@H]1CCNC1 [SLN5-X-0978, (R)-2-(imidazo[1,2-a]pyridin-3-yl)-N-Isopropyl-N-(pyrrolidin-3-yl) thiazole-4-carboxamide hydrochloride] | Particularly good results |
